These results are taken from EP4682145A1, “BENZOHETEROCYCLIC COMPOUND, AND PREPARATION METHOD THEREFOR AND USE THEREOF” (Cascade Pharmaceuticals, Inc., priority 2023, dated 2024).

The structures appear in SMILES notation. Bounds are passed on as bounds.

For this test, the target named is T1, human FFAR1 (GPR40) (Homo sapiens, UniProt O14842).
T1 construct: Flag; expressed in transfected cells; host or cells: HEK293T
Put plainly: NFAT-RE-based reporter gene activity assay (Dual-Glo luciferase) for GPR40 agonistic activity in co-transfected HEK293T cells. It counts as cell-based. Particulars: 4-hour treatment; for Efficacy (%): class symbols. In short, it runs like this:
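HEK293T cells co-transfected with human FFAR1, NFAT-RE firefly luciferase and TK-Renilla plasmids; 24 h later treated 4 h with 10 half-log compound dilutions from 1 µM. Firefly/Renilla ratio normalised to DMSO; EC50 from four-parameter fit.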
(In general: Reporter assays use an easily measured gene product as a stand-in for the process of interest.)

T1 sequence (O14842 whole entry): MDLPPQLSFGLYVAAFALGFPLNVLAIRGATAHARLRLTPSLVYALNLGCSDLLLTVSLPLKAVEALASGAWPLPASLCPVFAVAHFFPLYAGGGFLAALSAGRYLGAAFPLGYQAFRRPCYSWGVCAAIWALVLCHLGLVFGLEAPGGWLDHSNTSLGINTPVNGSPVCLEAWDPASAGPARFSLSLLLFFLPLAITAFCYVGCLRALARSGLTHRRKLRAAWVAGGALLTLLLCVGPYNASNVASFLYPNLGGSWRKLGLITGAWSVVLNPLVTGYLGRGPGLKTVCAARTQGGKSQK

Consider `COc1cccc(N2CCC(c3oc4cc(C(CC(=O)O)C5CC5)ccc4c3C(=O)Nc3nccs3)CC2)c1` (stereo not drawn) [Compound 290], for which the EC50 fell in the range of 100 to 500 nM and the “Efficacy (%)” value is recorded as “†† (150 ≥ Efficacy (%) > 100)”.

`COc1cccc(N2CCC(c3oc4cc(C(CC(=O)O)C5CC5)ccc4c3C(=O)Nc3ncns3)CC2)c1` (stereo not drawn) [Compound 293]: the 50% effective concentration (EC50) fell in the range of 100 to 500 nM and the “Efficacy (%)” value is “†† (150 ≥ Efficacy (%) > 100)”.

`COc1cccc(N2CCC(c3oc4cc(C(CC(=O)O)C5CC5)ccc4c3C(=O)Nc3noc4ccccc34)CC2)c1` (stereo not drawn) [Compound 296]: the EC50 lay in the range of 100 to 500 nM and the “Efficacy (%)” value is on record as “††† (Efficacy (%) > 150)”.

With `COc1cccc(N2CCC(c3oc4cc(C(CC(=O)O)C5CC5)ccc4c3C(=O)Nc3nc4ccccc4s3)CC2)c1` (stereo not drawn) [Compound 297], the EC50 was 100 to 500 nM and the “Efficacy (%)” value was “†† (150 ≥ Efficacy (%) > 100)”.

Turning to `COc1cccc(N2CCC(c3oc4cc(C(CC(=O)O)C5CC5)ccc4c3C(=O)Nc3nc(C(C)(C)C)cs3)CC2)c1` (stereo not drawn) [Compound 298], the EC50 was in the range of 100 to 500 nM and the “Efficacy (%)” value is recorded as “†† (150 ≥ Efficacy (%) > 100)”.

In the case of `COc1cccc(N2CCC(c3oc4cc(C(CC(=O)O)C5CC5)ccc4c3C(=O)Nc3ncc(C(C)(C)C)s3)CC2)c1` (stereo not drawn) [Compound 299], the EC50 fell in the range of 100 to 500 nM and the “Efficacy (%)” value is “†† (150 ≥ Efficacy (%) > 100)”.

For `COc1cccc(N2CCC(c3oc4cc(C(CC(=O)O)C5CC5)ccc4c3C(=O)Nc3cc(C(C)(C)C)on3)CC2)c1` (stereo not drawn) [Compound 300], the EC50 lay in the range of 100 to 500 nM and the “Efficacy (%)” value is “†† (150 ≥ Efficacy (%) > 100)”.

As to `COc1cccc(N2CCC(c3oc4cc(C(CC(=O)O)C5CC5)ccc4c3C(=O)Nc3cc(C(C)(C)C)no3)CC2)c1` (stereo not drawn) [Compound 301], the EC50 fell in the range of 100 to 500 nM and the “Efficacy (%)” value is reported as “†† (150 ≥ Efficacy (%) > 100)”.

Take `COc1cccc(N2CCC(c3oc4cc(C(CC(=O)O)C5CC5)ccc4c3C(=O)Nc3cc(-c4ccccc4)nn3C)CC2)c1` (stereo not drawn) [Compound 302]: the EC50 fell in the range of 100 to 500 nM and the “Efficacy (%)” value is “† (100 ≥ Efficacy (%) > 50)”.

Turning to `COc1cccc(N2CCC(c3oc4cc(C(CC(=O)O)C5CC5)ccc4c3C(=O)Nc3nccn3C)CC2)c1` (stereo not drawn) [Compound 304], the EC50 was in the range of 100 to 500 nM and the “Efficacy (%)” value is recorded as “††† (Efficacy (%) > 150)”.

As for `COc1ccc(F)c(N2CCC(c3oc4cc(C(CC(=O)O)C5CC5)ccc4c3C(=O)NC(C)(C)C)CC2)c1` (stereo not drawn) [Compound 305], the EC50 is 100 to 500 nM and the “Efficacy (%)” value is on record as “†† (150 ≥ Efficacy (%) > 100)”.

As for `COc1ccc(F)c(N2CCC(c3oc4cc(C(CC(=O)O)C5CC5)ccc4c3C(=O)NCC(C)(C)C)CC2)c1` (stereo not drawn) [Compound 306], the EC50 was in the range of 100 to 500 nM and the “Efficacy (%)” value is “†† (150 ≥ Efficacy (%) > 100)”.

With `COc1ccc(F)c(N2CCC(c3oc4cc(C(CC(=O)O)C5CC5)ccc4c3C(=O)NCCC(C)(C)C)CC2)c1` (stereo not drawn) [Compound 307], the EC50 is 100 to 500 nM and the “Efficacy (%)” value is recorded as “†† (150 ≥ Efficacy (%) > 100)”.

In the case of `COc1ccc(F)c(N2CCC(c3oc4cc(C(CC(=O)O)C5CC5)ccc4c3C(=O)NC3CC3)CC2)c1` (stereo not drawn) [Compound 308], the EC50 was above 500 nM and the “Efficacy (%)” value is listed as “†† (150 ≥ Efficacy (%) > 100)”.

Regarding `COc1ccc(F)c(N2CCC(c3oc4cc(C(CC(=O)O)C5CC5)ccc4c3C(=O)NCC3CC3)CC2)c1` (stereo not drawn) [Compound 309], the EC50 lay in the range of 100 to 500 nM and the “Efficacy (%)” value is given as “†† (150 ≥ Efficacy (%) > 100)”.

Take `COc1ccc(F)c(N2CCC(c3oc4cc(C(CC(=O)O)C5CC5)ccc4c3C(=O)NCC(C)C)CC2)c1` (stereo not drawn) [Compound 310]: the EC50 was 100 to 500 nM and the “Efficacy (%)” value was “†† (150 ≥ Efficacy (%) > 100)”.

Regarding `CCNC(=O)c1c(C2CCN(c3cc(OC)ccc3F)CC2)oc2cc(C(CC(=O)O)C3CC3)ccc12` (stereo not drawn) [Compound 312], the EC50 lay in the range of 100 to 500 nM and the “Efficacy (%)” value is on record as “† (100 ≥ Efficacy (%) > 50)”.

As to `COc1ccc(F)c(N2CCC(c3oc4cc(C(CC(=O)O)C5CC5)ccc4c3C(=O)Nc3ccccc3)CC2)c1` (stereo not drawn) [Compound 314], the EC50 fell in the range of 100 to 500 nM and the “Efficacy (%)” value is “†† (150 ≥ Efficacy (%) > 100)”.

For the molecule `COc1ccc(F)c(N2CCC(c3oc4cc(C(CC(=O)O)C5CC5)ccc4c3C(=O)Nc3ccc(C(C)(C)C)cc3)CC2)c1` (stereo not drawn) [Compound 315], the EC50 was in the range of 100 to 500 nM and the “Efficacy (%)” value is “†† (150 ≥ Efficacy (%) > 100)”.

As for `COc1ccc(F)c(N2CCC(c3oc4cc(C(CC(=O)O)C5CC5)ccc4c3C(=O)Nc3cccc(C(C)(C)C)c3)CC2)c1` (stereo not drawn) [Compound 316], the half-maximal effective concentration (EC50) lay within 100 to 500 nM and the “Efficacy (%)” value is reported as “†† (150 ≥ Efficacy (%) > 100)”.

Take `COc1ccc(F)c(N2CCC(c3oc4cc(C(CC(=O)O)C5CC5)ccc4c3C(=O)Nc3ccc(F)cc3)CC2)c1` (stereo not drawn) [Compound 317]: the EC50 was in the range of 100 to 500 nM and the “Efficacy (%)” value was “† (100 ≥ Efficacy (%) > 50)”.

Take `COc1ccc(F)c(N2CCC(c3oc4cc(C(CC(=O)O)C5CC5)ccc4c3C(=O)Nc3ccccc3C)CC2)c1` (stereo not drawn) [Compound 319]: the EC50 lay within 100 to 500 nM and the “Efficacy (%)” value is listed as “†† (150 ≥ Efficacy (%) > 100)”.

With `COc1ccc(F)c(N2CCC(c3oc4cc(C(CC(=O)O)C5CC5)ccc4c3C(=O)Nc3cccc(C)c3)CC2)c1` (stereo not drawn) [Compound 320], the half-maximal effective concentration (EC50) fell in the range of 10 to 100 nM and the “Efficacy (%)” value is given as “†† (150 ≥ Efficacy (%) > 100)”.

In the case of `COc1ccc(F)c(N2CCC(c3oc4cc(C(CC(=O)O)C5CC5)ccc4c3C(=O)Nc3ccc(C)cc3)CC2)c1` (stereo not drawn) [Compound 321], the EC50 was in the range of 100 to 500 nM and the “Efficacy (%)” value was “†† (150 ≥ Efficacy (%) > 100)”.

Regarding `COc1cccc(N2CCC(c3oc4cc([C@@H](CC(=O)O)C5CC5)ccc4c3C(=O)Nc3ccccc3Cl)CC2)c1F` [Compound 322], the EC50 was at most 10 nM and the “Efficacy (%)” value is on record as “†† (150 ≥ Efficacy (%) > 100)”.

`COc1cccc(N2CCC(c3oc4cc([C@@H](CC(=O)O)C5CC5)ccc4c3C(=O)Nc3ccccc3F)CC2)c1F` [Compound 323]: the EC50 was at most 10 nM and the “Efficacy (%)” value is reported as “†† (150 ≥ Efficacy (%) > 100)”.

Take `COc1cccc(N2CCC(c3oc4cc([C@@H](CC(=O)O)C5CC5)ccc4c3C(=O)Nc3ccccc3C)CC2)c1F` [Compound 324]: the EC50 is at most 10 nM and the “Efficacy (%)” value is “†† (150 ≥ Efficacy (%) > 100)”.

Turning to `COc1cccc(N2CCC(c3oc4cc([C@@H](CC(=O)O)C5CC5)ccc4c3C(=O)Nc3cccc(C)c3)CC2)c1F` [Compound 325], the EC50 fell in the range of 100 to 500 nM and the “Efficacy (%)” value is “†† (150 ≥ Efficacy (%) > 100)”.

In the case of `CCC(c1ccccc1OC)N1CCC(c2oc3cc(C(CC(=O)O)C4CC4)ccc3c2C(=O)Nc2ccccc2F)CC1` (stereo not drawn) [Compound 326], the concentration giving a half-maximal response (EC50) lay in the range of 100 to 500 nM and the “Efficacy (%)” value was “†† (150 ≥ Efficacy (%) > 100)”.

On to `CC(c1ccccc1OC(F)(F)F)N1CCC(c2oc3cc(C(CC(=O)O)C4CC4)ccc3c2C(=O)Nc2ccccc2F)CC1` (stereo not drawn) [Compound 327], for which the 50% effective concentration (EC50) lay within 100 to 500 nM and the “Efficacy (%)” value is “†† (150 ≥ Efficacy (%) > 100)”.

For the molecule `COc1ccccc1C(C)N1CCC(c2oc3cc(C(CC(=O)O)C4CC4)ccc3c2C(=O)Nc2ccccc2F)CC1` (stereo not drawn) [Compound 328], the EC50 was above 500 nM and the “Efficacy (%)” value is on record as “†† (150 ≥ Efficacy (%) > 100)”.

In the case of `Cc1ccccc1NC(=O)c1c(C2CCN(c3ccc4c(c3)OCO4)CC2)oc2cc([C@@H](CC(=O)O)C3CC3)ccc12` [Compound 330], the EC50 was in the range of 10 to 100 nM and the “Efficacy (%)” value is given as “†† (150 ≥ Efficacy (%) > 100)”.

On to `O=C(O)C[C@H](c1ccc2c(C(=O)Nc3ccccc3F)c(C3CCN(c4ccc5c(c4)OCO5)CC3)oc2c1)C1CC1` [Compound 331], for which the EC50 lay in the range of 100 to 500 nM and the “Efficacy (%)” value is reported as “†† (150 ≥ Efficacy (%) > 100)”.

Regarding `Cc1ccc(Cl)c(NC(=O)c2c(C3CCN(c4ccc5c(c4)OCO5)CC3)oc3cc([C@@H](CC(=O)O)C4CC4)ccc23)c1` [Compound 332], the EC50 is at most 10 nM and the “Efficacy (%)” value is “†† (150 ≥ Efficacy (%) > 100)”.

On to `O=C(O)C[C@H](c1ccc2c(C(=O)Nc3cc(F)ccc3Cl)c(C3CCN(c4ccc5c(c4)OCO5)CC3)oc2c1)C1CC1` [Compound 333], for which the EC50 is at most 10 nM and the “Efficacy (%)” value was “†† (150 ≥ Efficacy (%) > 100)”.

As for `O=C(O)C[C@H](c1ccc2c(C(=O)Nc3cc(F)ccc3Br)c(C3CCN(c4ccc5c(c4)OCO5)CC3)oc2c1)C1CC1` [Compound 334], the EC50 is at most 10 nM and the “Efficacy (%)” value is listed as “†† (150 ≥ Efficacy (%) > 100)”.

Turning to `O=C(O)C[C@H](c1ccc2c(C(=O)Nc3cc(C(F)(F)F)ccc3Cl)c(C3CCN(c4ccc5c(c4)OCO5)CC3)oc2c1)C1CC1` [Compound 335], the EC50 is at most 10 nM and the “Efficacy (%)” value is recorded as “†† (150 ≥ Efficacy (%) > 100)”.

Turning to `CCc1ccc(Cl)c(NC(=O)c2c(C3CCN(c4ccc5c(c4)OCO5)CC3)oc3cc([C@@H](CC(=O)O)C4CC4)ccc23)c1` [Compound 337], the EC50 is at most 10 nM and the “Efficacy (%)” value is “†† (150 ≥ Efficacy (%) > 100)”.

Regarding `COc1ccc(F)c(N2CCC(c3oc4cc([C@@H](CC(=O)O)C5CC5)ccc4c3C(=O)Nc3cc(Cl)ccc3F)CC2)c1` [Compound 338], the EC50 lay in the range of 10 to 100 nM and the “Efficacy (%)” value is “†† (150 ≥ Efficacy (%) > 100)”.

For `CCc1ccc(Cl)c(NC(=O)c2c(C3CCN(c4cc(OC)ccc4F)CC3)oc3cc([C@@H](CC(=O)O)C4CC4)ccc23)c1` [Compound 339], the EC50 is at most 10 nM and the “Efficacy (%)” value is “†† (150 ≥ Efficacy (%) > 100)”.

On to `COc1ccc(F)c(N2CCC(c3oc4cc([C@@H](CC(=O)O)C5CC5)ccc4c3C(=O)Nc3cc(C(F)(F)F)ccc3Cl)CC2)c1` [Compound 340], for which the EC50 was below 10 nM and the “Efficacy (%)” value was “††† (Efficacy (%) > 150)”.

For the molecule `COc1ccc(F)c(N2CCC(c3oc4cc([C@@H](CC(=O)O)C5CC5)ccc4c3C(=O)Nc3cc(F)ccc3Cl)CC2)c1` [Compound 341], the EC50 is at most 10 nM and the “Efficacy (%)” value is “†† (150 ≥ Efficacy (%) > 100)”.

For orientation: EC50 means the concentration giving half of the maximal effect. Higher therefore signals a less potent agent.
